From PMC8260761, “A bacteriocin-based treatment option for Staphylococcus haemolyticus biofilms” (Scientific Reports, 2021)

Columns and labels:
Assay in all cases: Spot-on-lawn inhibition assay
Format in all cases: cell-based
E. faecalis = tested on: E. faecalis; design: key: –: “−” = No inhibition; “+” = Unclear zone; “++” = zone < 1 cm; “+++” = zone ≥ 1 cm; settings: 5 µl at 1 mg/ml, n=3
Protocol: (§1) A semi-quantitative spot-on-lawn inhibitory assay was performed on 51 bacterial indicator strains (Table S1) to determine the bacteriocins inhibition spectra. Overnight cultures were diluted 1:100 in BHI soft agar and distributed on BHI agar plates. Once solidified, bacteriocins with various concentrations were applied on designated spots. The plates were incubated at appropriate temperature O/N and inhibition zones were measured the following day. To determine minimal inhibitory concentration (MIC50) of H1 against clinical S. haemolyticus isolates (Table S2), as well as strains heterologously expressing RseP (Table S4), the microtiterplate antimicrobial assay was performed as previously described[41],[79]. MIC50 was defined as the minimal bacteriocin concentration needs to inhibit the growth of a bacterial strain by at least 50%.

Enterococcus avium = tested on: Enterococcus avium; design: key: –: “−” = No inhibition; “+” = Unclear zone; “++” = zone < 1 cm; “+++” = zone ≥ 1 cm; settings: Enterococcus avium LMG 3465; 5 µl at 1 mg/ml; n=3
Protocol: as §1

L. ivanovii = tested on: L. ivanovii; design: key: –: “−” = No inhibition; “+” = Unclear zone; “++” = zone < 1 cm; “+++” = zone ≥ 1 cm; settings: L. ivanovii Li4; 5 µl at 1 mg/ml; n=3
Protocol: as §1

L. plantarum = tested on: L. plantarum; design: key: –: “−” = No inhibition; “+” = Unclear zone; “++” = zone < 1 cm; “+++” = zone ≥ 1 cm; settings: L. plantarum LMG 2352; 5 µl at 1 mg/ml; n=3
Protocol: as §1

Lactococcus garvieae = tested on: Lactococcus garvieae; design: key: –: “−” = No inhibition; “+” = Unclear zone; “++” = zone < 1 cm; “+++” = zone ≥ 1 cm; settings: Lactococcus garvieae DCC43; 5 µl at 1 mg/ml; n=3
Protocol: as §1

Carnobacterium divergens = tested on: Carnobacterium divergens; design: key: “-“ = No inhibition; “+” = Unclear zone; “++” = zone < 1 cm; “+++”= zone > 1 cm; settings: Carnobacterium divergens NCDO 2306; 5 µl at 1 mg/ml; n=3
Protocol: as §1

Esherichia coli = tested on: Esherichia coli; design: key: “-“ = No inhibition; “+” = Unclear zone; “++” = zone < 1 cm; “+++”= zone > 1 cm; settings: 5 µl at 1 mg/ml, n=3
Protocol: as §1

L. gelidum = tested on: L. gelidum; design: key: “-“ = No inhibition; “+” = Unclear zone; “++” = zone < 1 cm; “+++”= zone > 1 cm; settings: L. gelidum LMG 2386; 5 µl at 1 mg/ml; n=3
Protocol: as §1

L. innocua = tested on: L. innocua; design: key: “-“ = No inhibition; “+” = Unclear zone; “++” = zone < 1 cm; “+++”= zone > 1 cm; settings: 5 µl at 1 mg/ml, n=3
Protocol: as §1

L. lactis = tested on: L. lactis; design: key: “-“ = No inhibition; “+” = Unclear zone; “++” = zone < 1 cm; “+++”= zone > 1 cm; settings: 5 µl at 1 mg/ml, n=3
Protocol: as §1

L. monocytogenes = tested on: L. monocytogenes; design: key: “-“ = No inhibition; “+” = Unclear zone; “++” = zone < 1 cm; “+++”= zone > 1 cm; settings: 5 µl at 1 mg/ml, n=3
Protocol: as §1

L. sakei = tested on: L. sakei; design: key: “-“ = No inhibition; “+” = Unclear zone; “++” = zone < 1 cm; “+++”= zone > 1 cm; settings: 5 µl at 1 mg/ml, n=3
Protocol: as §1

L. salivarius = tested on: L. salivarius; design: key: “-“ = No inhibition; “+” = Unclear zone; “++” = zone < 1 cm; “+++”= zone > 1 cm; settings: L. salivarius UCC118; 5 µl at 1 mg/ml; n=3
Protocol: as §1

S. aureus = tested on: S. aureus; design: key: “-“ = No inhibition; “+” = Unclear zone; “++” = zone < 1 cm; “+++”= zone > 1 cm; settings: 5 µl at 1 mg/ml, n=3
Protocol: as §1

S. simulans = tested on: S. simulans; design: key: “-“ = No inhibition; “+” = Unclear zone; “++” = zone < 1 cm; “+++”= zone > 1 cm; settings: S. simulans LMG 3233; 5 µl at 1 mg/ml; n=3
Protocol: as §1

S. thermophilus = tested on: S. thermophilus; design: key: “-“ = No inhibition; “+” = Unclear zone; “++” = zone < 1 cm; “+++”= zone > 1 cm; settings: S. thermophilus Sfi13; 5 µl at 1 mg/ml; n=3
Protocol: as §1

S. uberis = tested on: S. uberis; design: key: “-“ = No inhibition; “+” = Unclear zone; “++” = zone < 1 cm; “+++”= zone > 1 cm; settings: 5 µl at 1 mg/ml, n=3
Protocol: as §1

[1] = tested on: Streptococcus dysgalactiae; design: key: “-“ = No inhibition; “+” = Unclear zone; “++” = zone < 1 cm; “+++”= zone > 1 cm; settings: Streptococcus dysgalactiae 7649-3; 5 µl at 1 mg/ml; n=3
Protocol: as §1

Row | Sequence | Average inhibition score (E. faecalis; E. faecalis LMG 2333) | Average inhibition score (E. faecalis; E. faecalis LMG 3330) | Average inhibition score (E. faecalis; E. faecalis LMG 3331) | Average inhibition score (E. faecalis; E. faecalis LMG 3332) | Average inhibition score (E. faecalis; E. faecalis V583) | Average inhibition score (Enterococcus avium) | Average inhibition score (L. ivanovii) | Average inhibition score (L. plantarum) | Average inhibition score (Lactococcus garvieae) | Average inhibition score (Carnobacterium divergens) | Average inhibition score (Esherichia coli; E. coli TG1) | Average inhibition score (Esherichia coli; Esherichia coli DH5α) | Average inhibition score (L. gelidum) | Average inhibition score (L. innocua; L. innocua LMG 2710) | Average inhibition score (L. innocua; L. innocua LMG 2785) | Average inhibition score (L. lactis; L. lactis IL1403) | Average inhibition score (L. lactis; L. lactis LMG 2081) | Average inhibition score (L. monocytogenes; L. monocytogenes 223) | Average inhibition score (L. monocytogenes; L. monocytogenes 279) | Average inhibition score (L. monocytogenes; L. monocytogenes 400) | other results
1 | MLAKIKAMIKKFPNPYTLAAKLTTYEINWYKQQYGRYPWERPVA [EJ97, enterocin EJ97] | +++ (“+++”= zone > 1 cm) | +++ (“+++”= zone > 1 cm) | +++ (“+++”= zone > 1 cm) | +++ (“+++”= zone > 1 cm) | + | +++ (“+++”= zone > 1 cm) | + | ++ (“++” = zone < 1 cm) | + | - | - | - | - | +++ (“+++”= zone > 1 cm) | - | +++ (“+++”= zone > 1 cm) | - | - | - | - | Average inhibition score (L. monocytogenes; L. monocytogenes 403): -; Average inhibition score (L. sakei; L. sakei 148): -; Average inhibition score (L. sakei; L. sakei LMG 2380): -; Average inhibition score (L. salivarius): -; Average inhibition score (S. aureus; S. aureus ATCC14458): -; Average inhibition score (S. aureus; S. aureus LMG 3325): -; Average inhibition score (S. aureus; S. aureus LMG 3328): -; Average inhibition score (S. aureus; S. aureus LMG 3329): -; Average inhibition score (S. simulans): -; Average inhibition score (S. thermophilus): -; Average inhibition score (S. uberis; S. uberis 7904-3): -; Average inhibition score (S. uberis; S. uberis 8008-1): -; Average inhibition score [1]: -
2 | MKFKFNPTGTIVKKLTQYEIAWFKNKHGYYPWEIPRC [K1, enterocin K1] | + | + | + | + | + | + | + | + | +++ (“+++”= zone > 1 cm) | - | - | - | - | ++ (“++” = zone < 1 cm) | +++ (“+++”= zone > 1 cm) | +++ (“+++”= zone > 1 cm) | - | - | - | - | Average inhibition score (L. monocytogenes; L. monocytogenes 403): -; Average inhibition score (L. sakei; L. sakei 148): +++ (“+++”= zone > 1 cm); Average inhibition score (L. sakei; L. sakei LMG 2380): ++ (“++” = zone < 1 cm); Average inhibition score (L. salivarius): -; Average inhibition score (S. aureus; S. aureus ATCC14458): -; Average inhibition score (S. aureus; S. aureus LMG 3263): -; Average inhibition score (S. aureus; S. aureus LMG 3325): -; Average inhibition score (S. aureus; S. aureus LMG 3326): -; Average inhibition score (S. aureus; S. aureus LMG 3328): -; Average inhibition score (S. aureus; S. aureus LMG 3329): -; Average inhibition score (S. simulans): -; Average inhibition score (S. thermophilus): -; Average inhibition score (S. uberis; S. uberis 8008-1): -; Average inhibition score [1]: -
